Source: patent US12528767B2, “HDAC6 inhibitors and uses thereof” (Eikonizo Therapeutics, Inc., priority 2019, dated 2026)

Tested on: adult primary rat dorsal root ganglia (DRG)
Experiment: In vitro chemotherapy-induced peripheral neuropathy in rat DRGs treated with cisplatin
Format: cell-based, Sprague Dawley rat
Conditions: 5 μM compound + 0.5 mM cisplatin, 4 days
Protocol: ACY-1083, obtained from MedChem Express, is a published HDAC6-selective inhibitor and was used as a benchmark. Blinded DMSO was used as an additional negative control. […] Nerve degeneration was evaluated by blebs per area as visualized by fluorescent imaging of beta tubulin staining. Axon area was also evaluated by fluorescent imaging of beta tubulin staining.
Select exemplary compounds were evaluated for prevention of nerve degeneration in an in vitro chemotherapy induced neuropathy model using adult primary rat dorsal root ganglia (DRG). Compounds were blinded for treatment and analysis, using DMSO as a vehicle control. […] Blebs (fragments) signify the beginning of the nerve degeneration process. Total axon area is related to neuron survival and is a more general measure of neuroprotection.
Dissociation solution (100 mL of HBSS with 2 mL of HEPES (1 M, pH 7.25)) was prepared and precooled to 4° C. on study day 1. A 24 well cell culture plate was coated with ECL. Each well was coated with 0.3 mL of ECL solution (1:25 in sterile PBS) and incubated overnight at 37° C. ECL solution was aspirated and the well plate was rinsed with neurobasal medium on study day 2. […]

Compound	Nerve degeneration: blebs per area compared to vehicle in the presence of cisplatin (FIG. 3A)	Axon area compared to vehicle in the presence of cisplatin (FIG. 3B)
O=C(NO)c1ccc(CN2C[C@H]3CC[C@@H]2CO3)c(F)c1 (single isomer, unassigned) [compound 173]	decreased blebs per area	
O=C(NO)c1cc(F)c2c(c1)CCN1CCC[C@@H]21 (single isomer, unassigned) [compound 79]		increased axon area
